Data reported in article PMC12649408 (Antibiotics, 2025).
Bridge positions count the residues as written; N and C are the ends.

Key:
[1] = not given; remark: listed apart in the source
[2] = not given; remark: listed apart in the source
[3] = not given; remark: listed apart in the source
[4] = not given; remark: listed apart in the source
[5] = not given; remark: listed apart in the source
[6] = not given; remark: listed apart in the source
[7] = not given; remark: listed apart in the source
[8] = not given; remark: listed apart in the source
[9] = not given; remark: listed apart in the source
[10] = not given; remark: listed apart in the source
[11] = not given; remark: listed apart in the source

Q: What does the source list for “H-RECKTESNTFPGICITKPPCRKACISEKFTDGHCSKIRRRCLCRRPC-OH (disulfide 3-47, 14-34, 20-41, 24-43)”?
A: α-Helix, aqueous solution: 8.9%; Random, DPC micelles [1]: 32.9%; β-Sheet, DPC micelles [2]: 31.2%; β-Turn, SDS micelles [3]: 21.7%; β-Turn, DPC micelles [4]: 21.7%; Random, aqueous solution [5]: 37.7%; α-Helix, SDS micelles [6]: 16.6%; Random, SDS micelles [7]: 31%; β-Sheet, SDS micelles [8]: 30.8%; α-Helix, DPC micelles [9]: 14.1%; β-Sheet, aqueous solution [10]: 30.7%; β-Turn, aqueous solution [11]: 22.7%

Q: Which results are given for “H-RECKTESNTFPGICITKPPCRKACISEKFTDGHCSKIRRRCLCTKPC-OH (disulfide 3-47, 14-34, 20-41, 24-43)”?
A: α-Helix, aqueous solution: 8.3%; Random, DPC micelles [1]: 32.9%; β-Sheet, DPC micelles [2]: 31.1%; β-Turn, SDS micelles [3]: 21.8%; β-Turn, DPC micelles [4]: 20.5%; Random, aqueous solution [5]: 36.2%; α-Helix, SDS micelles [6]: 14.2%; Random, SDS micelles [7]: 31.2%; β-Sheet, SDS micelles [8]: 32.8%; α-Helix, DPC micelles [9]: 15.5%; β-Sheet, aqueous solution [10]: 34.3%; β-Turn, aqueous solution [11]: 21.2%

Q: With “H-RECKTESNTFPGICITKPPCRKACISEKFTDGHCSRIRRRCLCTKPC-OH (disulfide 3-47, 14-34, 20-41, 24-43)” as the substance, how does the α-Helix, aqueous solution read?
A: The α-Helix, aqueous solution was 5.6%.

Q: And the Random, DPC micelles [1]?
A: The Random, DPC micelles was 34.6%.

Q: What about the β-Sheet, DPC micelles [2] of the same substance?
A: Its β-Sheet, DPC micelles is 35.8%.

Q: What about the β-Turn, SDS micelles [3] of the same substance?
A: Its β-Turn, SDS micelles is 21.3%.

Q: What about the β-Turn, DPC micelles [4] of the same substance?
A: The β-Turn, DPC micelles was 22%.

Q: What about the Random, aqueous solution [5] of the same substance?
A: Its Random, aqueous solution is 35.6%.

Q: What about the α-Helix, SDS micelles [6] of the same substance?
A: The α-Helix, SDS micelles was 6.5%.

Q: What about the Random, SDS micelles [7] of the same substance?
A: The Random, SDS micelles was 31.9%.

Q: And the β-Sheet, SDS micelles [8]?
A: The β-Sheet, SDS micelles was 40.4%.

Q: What about the α-Helix, DPC micelles [9] of the same substance?
A: Its α-Helix, DPC micelles is 7.6%.

Q: And the β-Sheet, aqueous solution [10]?
A: Its β-Sheet, aqueous solution is 36.8%.

Q: What about the β-Turn, aqueous solution [11] of the same substance?
A: The β-Turn, aqueous solution was 22%.
